Read-outs that look alike come from different tables or passages of the source.
Legend:
BxPC-3 cells = test: BxPC-3 cell proliferation test (CTG); type: cell-based; conditions: Homo sapiens, 144 h, 6 days
Description: To detect the inhibitory effects of the aforementioned compounds on the proliferation ability of BxPC-3 cells, 125 BxPC-3 cells (ATCC®CRL-1687) were seeded into a 384-well plate (Corning 3765), 35 μL per well, and placed in a constant temperature incubator at 37° C. and 5% CO2 overnight. Then, 40 nL of the compound was added to the 384-well plate using an Echo 655 Liquid Handler, with a maximum final concentration of 10 μM, 1:3 serial dilution, and in a total of 10 doses. Incubation was performed at 37° C., 5% CO2 for 6 days. The plate was taken out from the incubator and equilibrated at room temperature for 10 minutes. 20 μL of CTG (Promage G7572) was added to each well of the plate according to the platemap. The plate was centrifuged at 1000 rpm for 1 minute. The lysis of cells was induced by mixing on a shaker for 2 minutes. The plate was centrifuged at 1000 rpm for 1 minute. Incubation was performed at room temperature for 10 minutes to stabilize luminescence signals. Luminescence values were recorded by Envision (PerkinElmer 2105-0020). GraphPad 9.0 was used to fit the inhibition rate and compound concentration into a nonlinear regression curve (dose response-variable slope) to calculate GI50, inhibition rate={1−(A−B)/(C−B)}*100%, A=signal value of compound; B=average signal of blank control; C=average signal of negative control (wherein the negative control was 0.1% DMSO).

CYP 3A4 = biological target: T1, CYP 3A4 (Homo sapiens, UniProt P08684); test: CYP 3A4 time-dependent inhibition test; type: in vitro ADME; conditions: midazolam substrate
T1 construct: purchased BioIVT X008067
T1 sequence (P08684 whole entry): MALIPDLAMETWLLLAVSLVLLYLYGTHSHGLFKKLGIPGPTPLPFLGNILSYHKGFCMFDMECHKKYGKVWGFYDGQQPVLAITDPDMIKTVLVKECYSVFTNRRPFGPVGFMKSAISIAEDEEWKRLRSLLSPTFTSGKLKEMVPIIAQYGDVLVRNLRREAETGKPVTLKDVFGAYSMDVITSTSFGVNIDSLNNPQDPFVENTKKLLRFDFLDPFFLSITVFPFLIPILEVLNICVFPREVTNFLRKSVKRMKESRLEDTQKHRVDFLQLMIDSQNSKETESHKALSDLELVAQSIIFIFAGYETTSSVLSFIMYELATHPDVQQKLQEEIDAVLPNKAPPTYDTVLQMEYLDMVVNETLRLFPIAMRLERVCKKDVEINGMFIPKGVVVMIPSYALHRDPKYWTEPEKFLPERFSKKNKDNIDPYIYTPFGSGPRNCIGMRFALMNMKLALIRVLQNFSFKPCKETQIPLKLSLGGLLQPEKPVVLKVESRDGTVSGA
Description: CYP 3A4 and the test compound or mifepristone of various concentrations were added to a 96-deep well plate for pre-incubation. The plate was placed in a water bath and preheated at 37° C. for 5 min. For the 0 min pre-incubation samples, midazolam substrate was added to the incubation plate, then 10 mM NADPH solution was added, and the reaction was carried out in a 37° C. water bath for 5 min; for the 30 min pre-incubation samples with NADPH, 10 mM NADPH solution was added to the incubation plate, pre-incubated in a 37° C. water bath for 30 min, and then midazolam substrate was added and reacted in a 37° C. water bath for 5 min; for the 30 min pre-incubation samples without NADPH, the incubation plate was pre-incubated in a 37° C. water bath for 30 min, then midazolam substrate was added, 10 mM NADPH solution was added, and the reaction was carried out in a 37° C. water bath for 5 min. After the reaction was completed, the quenching solution (500 nM tolbutamide (Bide Pharmaceuticals, Cat. No. BD154332) and 10 nM terfenadine (Sigma, Cat. No. T96532)) were added to quench the reaction, and the plate was centrifuged at 3,220 g for 40 min at 4° C. The supernatant was pipetted into a new plate, the supernatant was diluted with pure water and mixed well, and the sample was analyzed using UPLC-MS/MS.

[1] = Pharmacokinetic test in mice; type: in vivo; conditions: male, ICR, mouse, plasma; for AUC / Cmax: 25 mg/kg, po 25 mpk; for clearance: 2.5 mg/kg, iv 2.5 mpk
Description: ICR male mice (15 to 35 g, 5 to 10 weeks old, Shanghai Xipuer-Bikai Experimental Animal Co., Ltd.) were selected as test animals in this study. The LC-MS/MS method was used to quantitatively determine drug concentrations in the plasma of mice at different time points after intravenous injection or oral gavage administration of the test compound to evaluate the pharmacokinetic characteristics of the compound in mice. The clear solution of the test compound was injected into ICR mice via the tail vein (without fasting, solvent: 40% hydroxypropyl-β-cyclodextrin) and administered to ICR mice by oral gavage (fasting for 10 to 14 hours, free drinking water, solvent: 0.2% hydroxypropyl cellulose, 0.5% Tween 80). For intravenous administration, blood was collected from the submandibular venous plexus at 0.033, 0.083, 0.25, 0.5, 1, 2, 4, 8, and 24 hours after administration, placed in an anticoagulant tube with EDTA-K2 (Jiangsu Kangjian Medical Supplies Co., Ltd.), mixed, and centrifuged at 2-8° C., 6800 g for 6 minutes to obtain plasma; for oral gavage administration, blood was collected from the submandibular venous plexus at 0.083, 0.25, 0.5, 1, 2, 4, 6, 8, and 24 hours after administration, placed in an anticoagulant tube with EDTA-K2 (Jiangsu Kangjian Medical Supplies Co., Ltd.), mixed, and centrifuged at 2-8° C., 6800 g for 6 minutes to obtain plasma. The blood drug concentration was determined by LC-MS/MS, and the relevant pharmacokinetic parameters were calculated by the non-compartmental linear logarithmic trapezoidal method using Phoenix WinNonlin™ Version 7.0 (Pharsight, USA) pharmacokinetic software.

[2] = Liver microsome stability test, human (HLM); type: in vitro ADME; conditions: human liver microsomes, NADPH; read-out: T1/2 (min) Human
Description: The 10 mM test compound/ketanserin (Energy Chemical, Cat. No. E020711) stock solution was diluted with acetonitrile to 0.5 mM compound/reference compound. The frozen 100 mM NADPH (MCE, Cat. No. HYF003/CS-4998) was diluted with phosphate buffer solution to a concentration of 6 mM; 20 mg/mL HLM (BioIVT, Cat. No. X008067) or MLM (BioIVT, Cat. No. M00501) was diluted with phosphate buffer solution to a concentration of 0.75 mg/ml, and added to a 96-round well plate, respectively, and shaken evenly on an oscillator at 600 rpm. The above oscillated samples were pipetted 3 times with an electric pipettor and dispensed into a new 96-well plate (containing NADPH group (n=2), NADPH-free group was added at 0 and 45 min (n=1)), and there were a total of 5 groups of 0, 5, 15, 30 and 45 min, respectively. After pre-incubation of the 5 groups of samples at 37° C. for 5 min, glacial acetonitrile was quickly added to the 0 min group for precipitation, and after rapid vortexing, K-Buffer or NADPH was added with an electric pipettor. The remaining groups were sequentially added with 6 mM NADPH to start the reaction in the order of 45, 30, 15 and 5 min samples, and K-Buffer solution was added to the NADPH-free group. After mixing at 1000 rpm in an oscillating mixer for 10 s, they were continuously incubated at 37° C. for the corresponding time. The reaction was terminated by quickly adding glacial acetonitrile internal standard using an electric pipettor; after vortexing at 900 rpm for 10 seconds, heat sealing was performed, oscillation was performed on an oscillator for 10 minutes, centrifugation was performed at 4000 rpm for 50 minutes, the supernatant was collected and diluted with pure water, and the test compound and the reference compound were quantified by LC-MS/MS analysis.

[3] = 0 min pre-incubation, read-out: IC50 (μM) 0 min
[4] = 30 min pre-incubation with NADPH, read-out: IC50 (μM) 30 min, with NADPH
[5] = 30 min pre-incubation without NADPH, read-out: IC50 (μM) 30 min, without NADPH

Structure (SMILES) | GI50 (BxPC-3 cells) [µM] | IC50 (CYP 3A4; [3]) [µM] | IC50 (CYP 3A4; [4]) [µM] | IC50 (CYP 3A4; [5]) [µM] | AUC [1] [ng·h/mL] | Cmax [1] [ng/mL] | clearance [1] [mL/min/kg] | half-life [2] [min]
[2H]C([2H])([2H])NC(=O)c1ccc(NCC#Cc2cc3c(NC4CCC(N5CC6(COC6)C5)CC4F)cccn3c2CC(F)(F)F)c(OC([2H])([2H])[2H])c1 (single isomer, unassigned) [Compound 74d] |  | 4.55 | 1.56 | 5.91 | 17400 | 4160 | 17 | 55.8
CNC(=O)c1ccc(NCC#Cc2nc3c(N[C@@H]4CCN(C)C[C@@H]4F)cccn3c2CC(F)(F)F)c(OC)c1 [Compound 5] | < 1 | 8.05 | 1.89 | 8.36 | 4070 | 1140 | 54 | 

Further lines, results first:

GI50 (BxPC-3 cells) [µM] | IC50 (CYP 3A4; [3]) [µM] | IC50 (CYP 3A4; [4]) [µM] | IC50 (CYP 3A4; [5]) [µM] | AUC [1] [ng·h/mL] | Cmax [1] [ng/mL] | clearance [1] [mL/min/kg] | half-life [2] [min] | Structure (SMILES)
< 1 | 7.48 | 3.01 | 7.46 | 19700 | 6860 | 20 |  | CNC(=O)c1ccc(NCC#Cc2nc3c(NC4CCC(N5CC6(COC6)C5)CC4F)cccn3c2CC(F)(F)F)c(OC)c1 (single isomer, unassigned) [Compound 35-6i]
 |  |  |  |  |  |  | 32 | COc1cc(C(=O)NC2CC2)ccc1NCC#Cc1nc2c(NC3CC[C@@H](N4CC5(COC5)C4)C[C@@H]3F)cccn2c1CC(F)(F)F (some centres unmarked) [Compound 54]
< 1 |  |  |  |  |  |  | 37.5 | CNC(=O)c1ccc(NCC#Cc2nc3c(NC4CC[C@@H](N5CC6(COC6)C5)C[C@@H]4F)cccn3c2CC(F)(F)F)c(OCF)c1 (some centres unmarked) [Compound 58]
< 1 |  |  |  |  |  |  | 44 | [2H]C([2H])([2H])NC(=O)c1ccc(NCC#Cc2nc3c(NC4CC[C@@H](N5CC6(COC6)C5)C[C@@H]4F)cccn3c2CC(F)(F)F)c(OC([2H])([2H])[2H])c1 (some centres unmarked) [Compound 64]

From patent publication US20260132128A1, “COMPOUND FOR RECOVERING P53 MUTATION FUNCTION AND USE THEREOF” (SHENZHEN ZHONGGE BIOLOGICAL TECHNOLOGY CO., LTD., priority 2022, published 2026)
